Laboratory results: ChEMBL document CHEMBL1158583, “3-(2-Aminocarbonylphenyl)propanoic acid analogs as potent and selective EP3 receptor antagonists. Part 3: Synthesis, metabolic stability, and biological evaluation of optically active analogs” (Bioorg Med Chem, 2010)

How the values were obtained:
[1] = (§1) AUC in rat at […], iv; format: ADME, organism-based; parameters: dose 2.7 mg/kg, route intravenous; conditions: plasma
[2] = (§2) Volume of distribution at steady state in rat at […], iv; format: ADME, organism-based; parameters: dose 2.7 mg/kg, route intravenous; conditions: in vivo, read-out: Vdss
[3] = (§3) AUC in rat at 10 mg/kg, po; format: ADME, organism-based, Plasma; parameters: dose 10 mg/kg, route oral; conditions: plasma
[4] = (§4) Oral bioavailability in rat at 10 mg/kg; format: ADME, organism-based; conditions: in vivo
[5] = as §1; format: ADME, organism-based; parameters: dose 1.2 mg/kg, route intravenous; conditions: plasma
[6] = as §2; format: ADME, organism-based; parameters: dose 1.2 mg/kg, route intravenous; conditions: in vivo, read-out: Vdss
[7] = Cmax in rat at 10 mg/kg, po; format: ADME, organism-based; parameters: dose 10 mg/kg, route oral; conditions: in vivo
[8] = as §1; format: ADME, organism-based; parameters: dose 1.8 mg/kg, route intravenous; conditions: plasma
[9] = as §2; format: ADME, organism-based; parameters: dose 1.8 mg/kg, route intravenous; conditions: in vivo, read-out: Vdss
[10] = (§5) AUC in rat at 2 mg/kg, iv; format: ADME, organism-based, Plasma; parameters: dose 2 mg/kg, route intravenous; conditions: plasma
[11] = Volume of distribution at steady state in rat at 2 mg/kg, iv; format: ADME, organism-based; parameters: dose 2 mg/kg, route intravenous; conditions: in vivo, read-out: Vdss
Rattus norvegicus [12] = assay: as §4; format: ADME, organism-based; conditions: in vivo
Rattus norvegicus [13] = assay: as §5; format: ADME, organism-based, Plasma; parameters: dose 2 mg/kg, route intravenous; conditions: in vivo
Rattus norvegicus [14] = assay: as §3; format: ADME, organism-based, Plasma; parameters: dose 10 mg/kg, route oral; conditions: in vivo

AUC [3] | bioavailability [4] | Cmax [7] | Vd [11] | Structure (SMILES) | further results
1010 ng·h/mL |  |  |  | Cc1cc(C)cc([C@@H](CC(C)C)NC(=O)c2cc(COc3ccccc3C)ccc2CCC(=O)O)c1 | AUC [1]: 890 ng·h/mL; Vd [2]: 1.24 L/kg
 | 18% | 190 ng/mL |  | Cc1cc(C)cc([C@@H](CC(C)C)NC(=O)c2cc(COc3cc(F)ccc3F)ccc2CCC(=O)O)c1 | AUC [5]: 681 ng·h/mL; Vd [6]: 0.39 L/kg
4100 ng·h/mL | 54% | 1350 ng/mL |  | Cc1cc(C)cc([C@@H](CC(C)C)NC(=O)c2cc(COc3cc(C)ccc3C)ccc2CCC(=O)O)c1 | AUC [8]: 1370 ng·h/mL; Vd [9]: 0.67 L/kg
1430 ng·h/mL | 21% | 950 ng/mL | 0.56 L/kg | Cc1cc(C)cc(Oc2ccc(CCC(=O)O)c(C(=O)N[C@H](CC(C)C)c3cc(C)cc(C)c3)c2)c1 | AUC [10]: 1370 ng·h/mL
 |  | 1370 ng/mL | 1.03 L/kg | Cc1cc(C)cc(Nc2ccc(CCC(=O)O)c(C(=O)N[C@H](CC(C)C)c3cc(C)cc(C)c3)c2)c1 | bioavailability (Rattus norvegicus [12]): 25%; AUC (Rattus norvegicus [13]): 2670 ng·h/mL; AUC (Rattus norvegicus [14]): 3270 ng·h/mL
